Data reported in patent publication US4628061A, “Prostaglandins” (National Research Development Corporation, priority 1981, dated 1986).

Legend:
Assay type in all cases: cell-based
[1] = target: T1, thromboxane receptor sites (Oryctolagus cuniculus, UniProt Q6WQI8); test: Rabbit Aorta System (inhibition of tension response of spiral strips of thoracic aorta to 11,9-(epoxymethano) PGH2); details: for Kb: Gaddum-Schild Equation, agonist 11,9-(epoxymethano) PGH2, compound added 50 minutes before agonist, 37° C, typical values, read-out: Affinity Constants (KB) Rabbit Aorta (converted)
T1 construct: contraction to 11,9-(epoxymethano) PGH2 (U-46619)
T1 sequence (Q6WQI8 1-233): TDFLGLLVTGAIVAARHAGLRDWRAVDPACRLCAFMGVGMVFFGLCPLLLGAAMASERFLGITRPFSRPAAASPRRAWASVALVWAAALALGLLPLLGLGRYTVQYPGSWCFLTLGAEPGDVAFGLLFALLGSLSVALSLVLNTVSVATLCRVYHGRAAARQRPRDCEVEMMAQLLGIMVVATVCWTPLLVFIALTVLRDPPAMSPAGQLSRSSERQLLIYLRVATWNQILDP
Protocol: (§1) The compound of Example 2 and various of the compounds of Example 8 are tested in the following three systems.
Sprial strips of thoracic aorta are suspended in Kreb's-Henseleit solution aerated with 95% O2 /5% CO2 and maintained at 37° C. Tension changes are recorded with a Grass FTO3 force transducer. Initially, cumulative dose response curves to the agonist 11,9-(epoxymethano) PGH2 are obtained (typically at concentrations of 2×10^-9, 1×10^-8, 5×10^-8 and 2.5×10^-7 M). In a second experiment, the compound under test is added 50 minutes previous to the addition of the series of agonist doses.
(§2) In the case of each system, the affinity constant, KB, for the compound under test is calculated according to the Gaddum-Schild Equation (based on Law of Mass Action). [formula]

[2] = target: T2, thromboxane receptor sites (Cavia porcellus, UniProt A0A286Y4I8); test: Guinea Pig Trachea System (inhibition of tension response of spiral strips of trachea to 11,9-(epoxymethano) PGH2); details: Gaddum-Schild Equation; agonist 11,9-(epoxymethano) PGH2; atropine sulphate and indomethacin present; compound added 50 minutes before agonist; 37° C; typical values; read-out: Affinity Constants (KB) Guinea Pig Trachea (converted)
T2 construct: from tissue; host or cells: guinea pig trachea, spiral strips
T2 sequence (A0A286Y4I8 1-347): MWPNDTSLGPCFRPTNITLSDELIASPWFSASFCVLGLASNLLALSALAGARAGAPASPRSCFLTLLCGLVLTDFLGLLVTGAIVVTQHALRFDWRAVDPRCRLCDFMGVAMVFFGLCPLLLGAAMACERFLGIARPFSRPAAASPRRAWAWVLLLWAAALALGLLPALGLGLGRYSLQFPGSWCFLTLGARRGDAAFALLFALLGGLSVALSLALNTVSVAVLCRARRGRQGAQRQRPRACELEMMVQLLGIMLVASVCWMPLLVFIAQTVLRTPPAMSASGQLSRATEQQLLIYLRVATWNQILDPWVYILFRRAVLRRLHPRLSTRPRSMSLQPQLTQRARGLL
Protocol: as §1
Guinea Pig Trachea System
Spiral strips of trachea are suspended in Kreb's-Henseleit solution, additionally containing atropine sulphate (2×10^-8 M) and indomethacin (10^-6), aerated with 95% O2 /5% CO2 and maintained at 37° C. Tension changes are recorded with a Grass FTO3 force transducer. Initially, cumulative dose response curves to the agonist 11,9-(epoxymethano) PGH2 are obtained (typically at the same concentrations as for the rabbit aorta system). In a second experiment, the compound under test is added 50 minutes previous to the addition of the series of agonist doses.
as §2

[3] = target: T3, thromboxane receptor sites (Homo sapiens, UniProt P21731); test: Human Platelet System (inhibition of aggregation by 11,9-(epoxymethano) PGH2 in platelet-rich plasma); details: Gaddum-Schild Equation, agonist 11,9-(epoxymethano) PGH2, compound added 5 minutes before agonist, typical values, read-out: Affinity Constants (KB) Human Platelets (converted)
T3 construct: Platelet-rich plasma is obtained from fresh, citrated human blood; endogenous in cells; host or cells: human platelets in platelet-rich plasma from fresh citrated blood
T3 sequence (P21731 1-343): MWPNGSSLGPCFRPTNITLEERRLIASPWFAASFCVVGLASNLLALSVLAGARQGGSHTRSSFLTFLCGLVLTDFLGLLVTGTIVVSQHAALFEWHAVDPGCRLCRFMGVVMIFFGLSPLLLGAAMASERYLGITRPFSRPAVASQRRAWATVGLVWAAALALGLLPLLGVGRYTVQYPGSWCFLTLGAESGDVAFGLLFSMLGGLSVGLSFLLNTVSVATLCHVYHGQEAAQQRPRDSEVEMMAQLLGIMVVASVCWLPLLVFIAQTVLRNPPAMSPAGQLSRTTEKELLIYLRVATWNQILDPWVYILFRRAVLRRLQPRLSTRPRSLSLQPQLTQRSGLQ
Protocol: as §1
Platelet-rich plasma is obtained from fresh, citrated human blood. Addition of the agonist 11,9-(epoxymethano) PGH2 (1×10^-7 to 5×10^-7 M) causes immediate aggregation recorded as an increase in light transmission (600 nm). In a second experiment the compound under test is added 5 minutes previous to the addition to the PGH2 analogue. The dose of the PGH2 analogue added is then increased to a level which gives a similar response to that obtained in the absence of antagonist.
as §2

Kb [1] [nM] | pure antagonist activity in the rabbit aorta system ([1]; in words) | Kb [2] [nM] | Kb [3] [nM] | SMILES
1000 | pure antagonist activity | 323 | 3570 | O=C(O)CCC/C=C\C[C@H]1[C@H]2CC[C@H](C2)[C@@H]1CNC(=O)Nc1ccccc1 (relative stereo) [--CH2 NHCONHC6 H5, 5-endo-(6'-Carboxyhex-2'Z-enyl)-6-exo-[N-(phenylcarbamoyl)-aminomethyl]-bicyclo[2,2,1]heptane]
833 |  | 145 |  | COc1ccc(NC(=O)NCCC2C3C=CC(C3)C2C/C=C\CCCC(=O)O)cc1 (centres unmarked) [--(CH2)2 NHCONHC6 H4 OCH3 (p)]
345 |  | 196 | 29400 | O=C(O)CCC/C=C\CC1C2C=CC(C2)C1CCNC(=O)Nc1ccccc1 (centres unmarked) [--(CH2)2 NHCONHC6 H5]
526 |  |  | 12500 | COc1ccc(NC(=S)NCCC2C3C=CC(C3)C2C/C=C\CCCC(=O)O)cc1 (centres unmarked) [--(CH2)2 NHCSNHC6 H4 OCH3 (p)]
1050 |  | 123 | 5000 | COc1ccc(NC(=S)NC(C)CC2C3C=CC(C3)C2C/C=C\CCCC(=O)O)cc1 (centres unmarked) [--CH2 CH(CH3)NHCSNHC6 H4 OCH3 (p)]
169 |  | 154 | 13900 | COc1ccc(NC(=S)NCC2C3C=CC(C3)C2C/C=C\CCCC(=O)O)cc1 (centres unmarked) [--CH2 NHCSNHC6 H4 OCH3 (p)]
